According to the supplement of paper PMC10307832:

Legend:
Assay in all cases: relative viability (nuclei count vs DMSO), 5 days (fraction); higher = more cells survive
[1] = compound: C1/C(=C\C2=CC=CS2)/C(=O)/C(=C/C3=CC=CS3)/C1 + COc1cccc2cc(-c3nc([C@H]4CC[C@H](C(=O)O)CC4)n4ncnc(N)c34)[nH]c12 [OSI-027] (partner 0.5 µM)
Summary of the method: (§1)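 Dosing by pin tool came one day after lung cancer cell lines were seeded in 1536-well plates, using either one drug or a fixed anchor-drug dose plus five library-drug doses (not always all listed) in √10 steps. After 5 days, nuclei were counted on 4× images. Relative viability is treated-well nuclei count divided by vehicle-well nuclei count, and values are medians of duplicate plates.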

TPCA-1 + Tozasertib = compound: C1=CC(=CC=C1C2=CC(=C(S2)NC(=O)N)C(=O)N)F [TPCA-1] + Cc1cc(Nc2cc(N3CCN(C)CC3)nc(Sc3ccc(NC(=O)C4CC4)cc3)n2)n[nH]1 [Tozasertib] (partner 0.1 µM)
Summary of the method: as §1

[2] = compound: C[C@]12O[C@H](C[C@]1(O)CO)n1c3ccccc3c3c4c(c5c6ccccc6n2c5c31)CNC4=O [Lestaurtinib] + C[C@@H](Oc1cc(-c2cnn(C3CCNCC3)c2)cnc1N)c1c(Cl)ccc(F)c1Cl [Crizotinib] (partner 1 µM)
Summary of the method: as §1

[3] = compound: C[C@]12O[C@H](C[C@]1(O)CO)n1c3ccccc3c3c4c(c5c6ccccc6n2c5c31)CNC4=O [Lestaurtinib] + O=C(CCCCCCC(=O)Nc1ccccc1)NO [Vorinostat] (partner 1 µM)
Summary of the method: as §1

Row | Cell Line | relative viability ([1]; first compound 0.2 µM) | relative viability ([1]; first compound 0.6325 µM) | relative viability ([1]; first compound 2 µM) | relative viability ([1]; first compound 6.325 µM) | relative viability ([1]; first compound 20 µM) | relative viability (TPCA-1 + Tozasertib; first compound 0.04 µM) | relative viability (TPCA-1 + Tozasertib; first compound 0.1265 µM) | relative viability (TPCA-1 + Tozasertib; first compound 0.4 µM) | relative viability (TPCA-1 + Tozasertib; first compound 1.265 µM) | relative viability (TPCA-1 + Tozasertib; first compound 4 µM) | relative viability ([2]; first compound 0.005 µM) | relative viability ([2]; first compound 0.01581 µM) | relative viability ([2]; first compound 0.05 µM) | relative viability ([2]; first compound 0.1581 µM) | relative viability ([2]; first compound 0.5 µM) | relative viability ([3]; first compound 0.005 µM) | relative viability ([3]; first compound 0.01581 µM) | relative viability ([3]; first compound 0.05 µM) | relative viability ([3]; first compound 0.1581 µM) | relative viability ([3]; first compound 0.5 µM)
1 | NCI-H3122 | 1.17 | 0.956 | 1 | 0.889 | 1.01 | 0.465 | 0.37 | 0.463 | 0.329 | 0.268 | 0.321 | 0.286 | 0.322 | 0.33 | 0.273 | 1.16 | 1.11 | 0.858 | 1.14 | 0.442
2 | PC-14 | 0.916 | 0.854 | 0.805 | 0.749 | 0.766 | 0.587 | 0.55 | 0.58 | 0.585 | 0.28 | 0.883 | 0.958 | 0.786 | 0.595 | 0.688 | 0.718 | 0.558 | 0.509 | 0.324 | 0.0543
3 | EPLC-272H | 0.349 | 0.284 | 0.285 | 0.238 | 0.265 | 0.652 | 0.277 | 0.31 | 0.442 | 0.251 | 0.939 | 0.65 | 0.458 | 0.574 | 0.581 | 0.394 | 0.463 | 0.496 | 0.276 | 0.0829
4 | A-427 | 0.481 | 0.465 | 0.491 | 0.445 | 0.442 | 0.231 | 0.211 | 0.192 | 0.161 | 0.147 | 0.999 | 0.842 | 0.501 | 0.411 | 0.125 | 0.778 | 0.995 | 0.766 | 0.447 | 0.208
